PubChem BioAssay AID624365 (Broad Institute, 2012)
Values joined by “and” are separate entries in the source; they are usually repeats but may differ in a detail not shown here. Identical values can stand only once. Results filed as inconclusive are left out. Active and inactive are the calls of the source.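 Rule for the calls: active = fitted curve drops past -35% activity change at a concentration up to twice the top valid dose tested; inconclusive = no clear call, values can overlap the other calls; inactive = activity opposite to the expected decrease, or the rest.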

Test system: not listed separately
Experiment: HepG2 cell viability loss, dose response, cytotoxicity control for LMP1 inhibitor project, CellTiter-Glo luminescence, dry powder (AID 624365)
Settings: HepG2 viability, CellTiter-Glo luminescence, 48 h; at 10 µM (top of the series)

Compound	activity change, negative = cytotoxicity
C/C(=N\NC(=S)N1CCN(c2ccccn2)CC1)c1ccccn1	-18.8% (inactive)
C/C(=N\NC(=S)Nc1ccccc1)c1ccccn1	-2.52% (inactive)

Same assay, conditions: HepG2 viability, CellTiter-Glo luminescence, 48 h; at 12 µM (top of the series)

Compound	activity change, negative = cytotoxicity
C=C1C[C@]23C[C@@]1(O)CC[C@H]2[C@@]12C=C[C@H](O)[C@@](C)(C(=O)O1)[C@H]2[C@@H]3C(=O)O	9.94% (inactive)

Same assay, conditions: HepG2 viability, CellTiter-Glo luminescence, 48 h; at 19.5 µM (top of the series)

Compound	activity change, negative = cytotoxicity
CC12CCC3C(CC=C4CC(O)CCC43CO)C1CCC2OC(=O)c1ccccc1 (centres undefined)	0.538% (inactive)
Cc1c(NC(=O)c2cccc(NC(=O)COc3ccccc3C#N)c2)c(=O)n(-c2ccccc2)n1C	0.795% (inactive)
Oc1cccc(C(Nc2nccs2)c2ccc3cccnc3c2O)c1 (centres undefined)	3.87% (inactive)
C[C@@H]1CCCCO[C@H](CN(C)C(=O)c2ccccc2)[C@H](C)CN([C@@H](C)CO)C(=O)c2cc(NC(=O)Nc3ccc(F)cc3)ccc2O1	-6.27% (inactive)
C[C@@H]1CN([C@@H](C)CO)C(=O)c2cc(NC(=O)Nc3ccc(C(F)(F)F)cc3)ccc2O[C@@H](C)CCCCO[C@H]1CN(C)Cc1ccc(C(F)(F)F)cc1	-1.82% (inactive)
C[C@@H]1CCCCO[C@H](CN(C)C(=O)CCC(F)(F)F)[C@H](C)CN([C@@H](C)CO)C(=O)c2cc(NC(=O)CCC(F)(F)F)ccc2O1	6.76% (inactive)
CCc1sc(C(=O)Nc2ncccc2O)cc1C	-0.832% (inactive)
Cc1ccc(S(=O)(=O)NC(CC(C)C)C(=O)NCC(c2ccco2)N2CCCCC2)cc1 (centres undefined)	14.4% (inactive)
C[C@@H]1CCCCO[C@@H](CN(C)Cc2ccccc2)[C@H](C)CN([C@H](C)CO)C(=O)c2cc(NC(=O)Nc3ccc4c(c3)OCO4)ccc2O1	-6.99% (inactive)
c1ccc(-c2cn3c4c(sc3n2)CCCC4)cc1	-13.4% (inactive)
Cc1ccnc(NC(=O)c2ccc(C(=O)c3ccccc3)cc2)c1	-6.85% (inactive)
Cc1ccc(NC(=O)C2CCN(S(=O)(=O)c3ccc4c(c3)NC(=O)C(C)S4)CC2)cc1Cl (centres undefined)	-15.1% (inactive)
Cc1cc(NC(=O)c2ccc3c(c2)OCCO3)no1	14.9% (inactive)
CCCSc1nnc2c3ccccc3n(Cc3ccccc3)c2n1	-1.67% (inactive)
CCc1ccc(/C=C/C(=O)C2C(=O)c3ccccc3C2=O)cc1	-7.16% (inactive)
COc1ccc(-c2csc3ncnc(NCCN4CCOCC4)c23)cc1	-1.72% (inactive)
C[C@@H]1CCCCO[C@H](CN(C)S(=O)(=O)c2ccccc2)[C@@H](C)CN([C@@H](C)CO)C(=O)c2cc(N(C)C)ccc2O1	-0.756% (inactive)
C[C@@H]1CCCCO[C@H](CN(C)CC2CCCCC2)[C@H](C)CN([C@@H](C)CO)C(=O)c2cc(NC(=O)NC3CCCCC3)ccc2O1	-0.214% (inactive)
O=C(CCc1ccccc1)NC(c1cccs1)c1cc(Cl)c2cccnc2c1O (centres undefined)	1.94% (inactive)

Compound	activity change, negative = cytotoxicity
CC1CN(C(=O)CSc2nnc3c4ccccc4n(Cc4cccc(Cl)c4)c3n2)CCN1C(=O)c1ccccc1F (centres undefined)	-2.74% (inactive)
C[C@@H]1CCCCO[C@H](CN(C)C(=O)NC2CCCCC2)[C@H](C)CN([C@@H](C)CO)C(=O)c2cc(NC(=O)C3CCCCC3)ccc2O1	11% (inactive)
C[C@@H]1CN([C@@H](C)CO)C(=O)c2cccc(NC(=O)Nc3cccc4ccccc34)c2O[C@H]1CN(C)C(=O)Nc1ccc(C(F)(F)F)cc1	-1.58% (inactive)
O=c1[nH]c(Nc2nc3ccccc3o2)nc2c1CCCC2	-6.44% (inactive)
C=C1C[C@]23C[C@@]1(O)CC[C@@H]2c1cccc(C)c1[C@@H]3C(=O)O	-23.5% (inactive)
COCCCNC(=O)C(C)Sc1nnc2c3cc(C)ccc3n(Cc3ccccc3F)c2n1 (centres undefined)	-14.5% (inactive)
CCN1CCN(C(c2cccnc2)c2cc(Cl)c3cccnc3c2O)CC1 (centres undefined)	-19.9% (inactive)
CSC(=S)N/N=C(\C)c1cccc(C)n1	1.36% (inactive)
C[C@H](CO)N1C[C@H](C)[C@@H](CN(C)CC2CCCCC2)OCCCC[C@H](C)Oc2ccc(NC(=O)Nc3cccc4ccccc34)cc2C1=O	-6.9% (inactive)
C=CCN1Cc2ccccc2[C@@H]2OC(c3ccc(OCCCO)cc3)=N[C@]2(CCC(=O)OC(C)(C)C)C1=O	4.76% (inactive)
COc1ccc(-c2cc3nc4n(c(=O)c3s2)CCC4)cc1	-14.3% (inactive)
O=C(Nc1cc(C(F)(F)F)cc(C(F)(F)F)c1)Nc1cnn(-c2ccc([N+](=O)[O-])cc2)c1C(F)(F)F	11.8% (inactive)
COc1ccc(C(=O)Nc2ccc3[nH]ccc3c2)cc1	1.7% (inactive)
C/C(=N\NC(=S)N1CC2CCC(CC2)C1)c1cccc(C)n1	-9.43% (inactive)
CCc1ccc(/C=C2\SC(=S)N(CCCC(=O)Nc3ccccn3)C2=O)cc1	-1.2% (inactive)
O=C1/C(=C/c2ccncc2)SC(=S)N1Cc1ccccc1	-5.23% (inactive)
Cc1ccc(S(=O)(=O)Nc2ccc3c(c2)C(=O)N([C@@H](C)CO)C[C@H](C)[C@@H](CN(C)C(=O)CCC(F)(F)F)OCCCC[C@H](C)O3)cc1	1.23% (inactive)
CC1=C(C(=O)OCc2ccc3c(c2)OCO3)C(c2ccc(F)cc2)NC(=O)N1 (centres undefined)	2.83% (inactive)

Same assay, conditions: HepG2 viability, CellTiter-Glo luminescence, 48 h; at 21 µM (top of the series)

Compound	activity change, negative = cytotoxicity
CNC[C@@H]1Oc2ccc(NS(=O)(=O)c3cn(C)cn3)cc2CC(=O)N([C@H](C)CO)C[C@@H]1C	-1.51% (inactive)
COc1ccc(NC(=O)c2ccc(OC(C)C(=O)O)cc2)cc1Cl (centres undefined)	-17.9% (inactive)

Test system: HepG2 viability, CellTiter-Glo luminescence, 48 h
Experiment: as above
Settings: not given

Compound	AC35
C/C(=N\NC(=S)Nc1cccc(Cl)c1)c1ccccn1	13.2 µM
O=C(CSc1nnc2c3ccccc3n(Cc3ccccc3)c2n1)NCc1ccco1	19.5 µM
COc1ccc2nc(Nc3nc(C)c(CCC(C)C)c(=O)[nH]3)nc(C)c2c1	3.44 µM
C/C(=N\NC(=S)Nc1ccc(C)cc1)c1ccccn1	11.9 µM
CSc1nc(-c2ccc(C)cc2)nc(C(Cl)Cl)n1	36 µM
O=c1[nH]c(=O)n([C@H]2C[C@H](O)[C@@H](CO)O2)cc1C(F)(F)F	14.3 µM
C/C=C/C/C=C/CCC(=O)[C@H]1O[C@H]1C(N)=O	14 µM and 60.1 µM
CC(C)=CCN(C(=O)C#Cc1ccccc1)[C@H](CO)c1ccccc1	20.3 µM
Fc1ccc2c(c1)c1nnc(SCCN3CCOCC3)nc1n2Cc1ccccc1	33.7 µM
C/C(=N\NC(=S)Nc1ccccc1Cl)c1ccccn1	9.26 µM
C[C@@H]1CN([C@@H](C)CO)C(=O)c2cc(NC(=O)Nc3ccc4c(c3)OCO4)ccc2O[C@H]1CN(C)CC1CCCCC1	28.9 µM
COc1cccc(/C=N/Nc2ncnc3c2ncn3Cc2ccccc2)c1O	26.4 µM
CC(=O)Nc1nc(C)c(-c2csc(Nc3ccc(O)cc3)n2)s1	19.6 µM
C[C@H](CO)N1C[C@H](C)[C@@H](CN(C)Cc2ccc(-c3ccccc3)cc2)Oc2ccc(NC(=O)Nc3cccc4ccccc34)cc2CC1=O	37 µM
COc1ccc2[nH]c(C(=O)N/N=C/c3ccc(O)cc3O)cc2c1	46.4 µM
CCn1c2ccccc2c2cc(/C=N/n3cnnc3)ccc21	22.1 µM
C[C@@H]1CN([C@@H](C)CO)C(=O)c2cc(NC(=O)Nc3ccc(C(F)(F)F)cc3)ccc2O[C@@H](C)CCCCO[C@@H]1CN(C)CC1CCCCC1	40.7 µM
Nc1ccn([C@@H]2O[C@H](CO)[C@@H](O)C2O)c(=O)n1 (some centres undefined)	7.36 µM
C/C(=N\NC(=S)N1CCCCC1)c1cccc(C)n1	2.55 µM
C[C@H](CO)N1C[C@H](C)[C@H](CN(C)C(=O)Nc2ccc(C(F)(F)F)cc2)OCCCC[C@H](C)Oc2ccc(NC(=O)Nc3ccc(F)cc3)cc2C1=O	55.6 µM
C[C@H](CO)N1C[C@H](C)[C@@H](CN(C)CC2CC2)OCCCC[C@H](C)Oc2ccc(NC(=O)Nc3cccc4ccccc34)cc2C1=O	79.9 µM
C[C@H]1CCCCO[C@@H](CN(C)CC2CCCCC2)[C@@H](C)CN([C@@H](C)CO)C(=O)c2cc(NC(=O)C3CCCCC3)ccc2O1	21.4 µM
